Tests used:
Assay type in all cases: in vivo, human
[1] = test system: patients with AF/AFL; assay: Pooled safety analysis of 5 controlled AF/AFL clinical studies, dronedarone 400 mg BID versus placebo
Description: (§1) The safety of dronedarone has been evaluated in a clinical development program that included, as of 12 Mar. 2008, a total of 8276 treated patients/healthy subjects in 55 completed studies. Of these, 4794 patients/healthy subjects received dronedarone.
Patients with the claimed indication of AF/AFL were included in 5 controlled clinical studies representing 88% (6285 patients) of the exposed patient population (7109 patients). Other patient populations, representing 14% (1028 patients) of the exposed patient population, were included in 13 clinical studies in patients with other cardiac conditions and patients with renal and hepatic impairment.
The safety profile of dronedarone 400 mg BID is derived from analysis of the 3282 patients in the 5 AF/AFL studies who were treated with dronedarone 400 mg BID and the 2875 who received placebo. The mean duration of exposure across the 5 studies in the dronedarone 400 mg BID group was 13.5 months, representing total exposure of 3684 patient-years. In the ATHENA study, the maximum follow-up was 30 months.
Discontinuation due to adverse reactions occurred in 11.8% of patients in the dronedarone 400 mg BID group and 7.7% in the placebo-treated group. The most common adverse events causing discontinuation of therapy with dronedarone 400 mg BID were gastrointestinal disorders (3.2% of patients versus 1.8% in the placebo group).

[2] = test system: patients with severe heart failure; assay: ANDROMEDA study, placebo-controlled, in patients with left ventricular dysfunction hospitalized with symptomatic HF; conditions: versus placebo, patients with severe heart failure requiring recent hospitalization or referral
Method: The present invention relates to the following identified and potential risk of dronedarone: mortality in patients with severe heart failure (HF) during treatment. The study referred to as ANDROMEDA was conducted in 627 patients with left ventricular dysfunction, hospitalized with symptomatic HF, requiring treatment with a diuretic, who have had within the last month at least 1 episode of dyspnea or fatigue at rest, or on slight exertion. […] The study was stopped prematurely due to an observed imbalance of deaths in the dronedarone group [n=25 versus 12 (placebo), p=0.027]. The main reason for death was worsening heart failure. Clinical judgment of the physician should guide the management plan of each patient based on individual benefit/risk assessment.

[3] = test system: patients with atrial fibrillation (AF) or atrial flutter (AFL) or a history of AF or AFL; assay: Clinical efficacy in patients with AF or AFL: cardiovascular hospitalization; conditions: 400 mg twice daily (BID)
Description: as §1

For `CCCCc1oc2ccc(NS(C)(=O)=O)cc2c1C(=O)c1ccc(OCCCN(CCCC)CCCC)cc1` [dronedarone, 2-n-butyl-3-[4-(3-di-n-butylaminopropoxy)benzoyl]-5-methylsulfonamido-benzofuran], the “Most frequent investigation abnormalities” value ([1]; dronedarone 400 mg BID) was “QT prolongation and increase in serum creatinine”, the “Discontinuation due to adverse reactions” value ([1]; dronedarone 400 mg BID group, 5 AF/AFL studies, placebo 7.7%) was 11.8 % of patients and the “Most frequent clinical adverse reactions” value ([1]; dronedarone 400 mg BID, 5 studies) was “diarrhea, nausea and vomiting, fatigue, asthenia, bradycardia, and rashes”. The “Gastrointestinal disorders causing discontinuation of therapy (most common adverse events causing discontinuation)” value ([1]; dronedarone 400 mg BID, placebo 1.8%) was 3.2 % of patients, the “Effect of intrinsic factors (race, gender, age) on incidence of any treatment-emergent adverse events” value ([1]; subgroup assessment) was “did not suggest any excess of adverse events in a particular subgroup” and the “Change in serum creatinine” value ([1]; within a week, does not reflect a change in underlying renal function) was “small change in serum creatinine”. For the same molecule, the Increase in mortality [2] was “greater than two-fold increase in mortality” and the “Reduction of the risk of cardiovascular hospitalization” value [3] was “effective for reduction of the risk of cardiovascular hospitalization”.
